# Data taken from PubChem BioAssay (NCI).
#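 Compound exposure: 48 hours, 5 concentrations, 96-well plates. The concentration for full growth arrest is given as TGI.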
# Tests used:
# Assay in all cases: inhibition of tumour cell growth, NCI panel, 48 h
# PC-3 prostate = system: PC-3 prostate
# RXF 393 renal = system: RXF 393 renal
# SF-295 CNS = system: SF-295 CNS
# U251 CNS = system: U251 CNS
# SK-OV-3 ovarian = system: SK-OV-3 ovarian
# LOX IMVI melanoma = system: LOX IMVI melanoma
# OVCAR-4 ovarian = system: OVCAR-4 ovarian
# SF-539 CNS = system: SF-539 CNS
# HOP-92 NSCLC = system: HOP-92 NSCLC
# M14 melanoma = system: M14 melanoma
# MALME-3M melanoma = system: MALME-3M melanoma
# MCF7 breast = system: MCF7 breast
# SN12C renal = system: SN12C renal
# A498 renal = system: A498 renal
# EKVX NSCLC = system: EKVX NSCLC
# SK-MEL-5 melanoma = system: SK-MEL-5 melanoma
# UACC-257 melanoma = system: UACC-257 melanoma
# MDA-MB-231 breast = system: MDA-MB-231 breast
# SK-MEL-2 melanoma = system: SK-MEL-2 melanoma
# OVCAR-5 ovarian = system: OVCAR-5 ovarian
# 786-0 renal = system: 786-0 renal
# ACHN renal = system: ACHN renal
# A549 NSCLC = system: A549 NSCLC
# TK-10 renal = system: TK-10 renal
# MDA-N = system: MDA-N
# K-562 leukemia = system: K-562 leukemia
# MDA-MB-435 = system: MDA-MB-435
# HOP-62 NSCLC = system: HOP-62 NSCLC
# NCI/ADR-RES ovarian = system: NCI/ADR-RES ovarian
# IGROV1 ovarian = system: IGROV1 ovarian
# HCC-2998 colon = system: HCC-2998 colon
# HL-60(TB) leukemia = system: HL-60(TB) leukemia
# HCT-116 colon = system: HCT-116 colon
# HCT-15 colon = system: HCT-15 colon
# NCI-H23 lung = system: NCI-H23 lung
# NCI-H226 lung = system: NCI-H226 lung
# COLO 205 colon = system: COLO 205 colon
# UACC-62 melanoma = system: UACC-62 melanoma
# SR leukemia = system: SR leukemia
# HS 578T breast = system: HS 578T breast
# HT29 colon = system: HT29 colon
# KM12 colon = system: KM12 colon
# OVCAR-3 ovarian = system: OVCAR-3 ovarian
# T-47D breast = system: T-47D breast
# RPMI-8226 leukemia = system: RPMI-8226 leukemia
# OVCAR-8 ovarian = system: OVCAR-8 ovarian
# CCRF-CEM leukemia = system: CCRF-CEM leukemia
# NCI-H522 lung = system: NCI-H522 lung
# CAKI-1 renal = system: CAKI-1 renal
# MOLT-4 leukemia = system: MOLT-4 leukemia
# SW-620 colon = system: SW-620 colon
# NCI-H460 lung = system: NCI-H460 lung
# DU-145 prostate = system: DU-145 prostate
# SNB-19 CNS = system: SNB-19 CNS
# SK-MEL-28 melanoma = system: SK-MEL-28 melanoma
# UO-31 renal = system: UO-31 renal
# SF-268 CNS = system: SF-268 CNS
# SNB-75 CNS = system: SNB-75 CNS
smiles,measurement,setting,value
COC(=O)c1c2c(cc3c1CC1(Cc4cc5c(c(C(C)=O)c4C1)CCCC5)C3)CCCC2 (stereo not drawn),TGI,PC-3 prostate,> 100 µM
same,TGI,RXF 393 renal,> 100 µM
same,TGI,SF-295 CNS,> 100 µM
same,TGI,U251 CNS,> 100 µM
same,TGI,SK-OV-3 ovarian,> 100 µM
same,TGI,LOX IMVI melanoma,> 100 µM
same,TGI,OVCAR-4 ovarian,> 100 µM
same,TGI,SF-539 CNS,> 100 µM
same,TGI,HOP-92 NSCLC,> 100 µM
same,TGI,M14 melanoma,> 100 µM
same,TGI,MALME-3M melanoma,> 100 µM
same,TGI,MCF7 breast,> 100 µM
same,TGI,SN12C renal,> 100 µM
same,TGI,A498 renal,> 100 µM
same,TGI,EKVX NSCLC,> 100 µM
same,TGI,SK-MEL-5 melanoma,> 100 µM
same,TGI,UACC-257 melanoma,> 100 µM
same,TGI,MDA-MB-231 breast,> 100 µM
same,TGI,SK-MEL-2 melanoma,44.5 µM
same,TGI,OVCAR-5 ovarian,> 100 µM
same,TGI,786-0 renal,> 100 µM
same,TGI,ACHN renal,> 100 µM
same,TGI,A549 NSCLC,> 100 µM
same,TGI,TK-10 renal,> 100 µM
same,TGI,MDA-N,> 100 µM
same,TGI,K-562 leukemia,> 100 µM
same,TGI,MDA-MB-435,> 100 µM
same,TGI,HOP-62 NSCLC,> 100 µM
same,TGI,NCI/ADR-RES ovarian,> 100 µM
same,TGI,IGROV1 ovarian,> 100 µM
same,TGI,HCC-2998 colon,> 100 µM
same,TGI,HL-60(TB) leukemia,46.3 µM
same,TGI,HCT-116 colon,> 100 µM
same,TGI,HCT-15 colon,> 100 µM
same,TGI,NCI-H23 lung,> 100 µM
same,TGI,NCI-H226 lung,> 100 µM
same,TGI,COLO 205 colon,> 100 µM
same,TGI,UACC-62 melanoma,> 100 µM
same,TGI,SR leukemia,21 µM
same,TGI,HS 578T breast,> 100 µM
same,TGI,HT29 colon,> 100 µM
same,TGI,KM12 colon,> 100 µM
same,TGI,OVCAR-3 ovarian,> 100 µM
same,TGI,T-47D breast,> 100 µM
same,TGI,RPMI-8226 leukemia,87.5 µM
same,TGI,OVCAR-8 ovarian,> 100 µM
same,TGI,CCRF-CEM leukemia,88.1 µM
same,TGI,NCI-H522 lung,> 100 µM
CC1(C)OC(=O)C(C#N)=C1C[n+]1ccccc1,TGI,PC-3 prostate,> 10 µM
same,TGI,RXF 393 renal,> 10 µM
same,TGI,SF-295 CNS,> 10 µM
same,TGI,U251 CNS,> 10 µM
same,TGI,SK-OV-3 ovarian,> 10 µM
same,TGI,CAKI-1 renal,> 10 µM
same,TGI,LOX IMVI melanoma,> 10 µM
same,TGI,OVCAR-4 ovarian,> 10 µM
same,TGI,SF-539 CNS,> 10 µM
same,TGI,HOP-92 NSCLC,> 10 µM
same,TGI,M14 melanoma,> 10 µM
same,TGI,MOLT-4 leukemia,> 10 µM
same,TGI,MALME-3M melanoma,> 10 µM
same,TGI,MCF7 breast,> 10 µM
same,TGI,SN12C renal,> 10 µM
same,TGI,SW-620 colon,> 10 µM
same,TGI,A498 renal,> 10 µM
same,TGI,EKVX NSCLC,> 10 µM
same,TGI,NCI-H460 lung,> 10 µM
same,TGI,DU-145 prostate,> 10 µM
same,TGI,SK-MEL-5 melanoma,> 10 µM
same,TGI,UACC-257 melanoma,> 10 µM
same,TGI,MDA-MB-231 breast,> 10 µM
same,TGI,SK-MEL-2 melanoma,> 10 µM
same,TGI,OVCAR-5 ovarian,> 10 µM
same,TGI,786-0 renal,> 10 µM
same,TGI,ACHN renal,> 10 µM
same,TGI,TK-10 renal,> 10 µM
same,TGI,MDA-N,> 10 µM
same,TGI,SNB-19 CNS,> 10 µM
same,TGI,SK-MEL-28 melanoma,> 10 µM
same,TGI,K-562 leukemia,> 10 µM
same,TGI,MDA-MB-435,> 10 µM
same,TGI,HOP-62 NSCLC,> 10 µM
same,TGI,NCI/ADR-RES ovarian,> 10 µM
same,TGI,IGROV1 ovarian,> 10 µM
same,TGI,HCC-2998 colon,> 10 µM
same,TGI,HL-60(TB) leukemia,> 10 µM
same,TGI,HCT-15 colon,> 10 µM
same,TGI,NCI-H23 lung,> 10 µM
same,TGI,NCI-H226 lung,> 10 µM
same,TGI,COLO 205 colon,> 10 µM
same,TGI,SR leukemia,> 10 µM
same,TGI,HS 578T breast,> 10 µM
same,TGI,HT29 colon,> 10 µM
same,TGI,UO-31 renal,> 10 µM
same,TGI,SF-268 CNS,> 10 µM
same,TGI,KM12 colon,> 10 µM
same,TGI,OVCAR-3 ovarian,> 10 µM
same,TGI,T-47D breast,> 10 µM
same,TGI,SNB-75 CNS,> 10 µM
same,TGI,RPMI-8226 leukemia,> 10 µM
same,TGI,OVCAR-8 ovarian,> 10 µM
same,TGI,CCRF-CEM leukemia,> 10 µM
same,TGI,NCI-H522 lung,> 10 µM
